From patent US20160296529A1, “AMINOTRIAZOLOPYRIDINE FOR USE IN THE TREATMENT OF INFLAMMATION, AND PHARMACEUTICAL COMPOSITIONS THEREOF” (priority 2012, published 2016)
“And” between values parts separate entries of the source, which are not always exact repeats. Identical values can stand only once. Like-named read-outs stand apart in the source and are kept apart here.

Assays:
[1] = test system: JAK-STAT; assay: JAK-STAT signalling assay (OSM-triggered pSTAT1(2)-luciferase reporter in HeLa cells); format: cell-based, human
Procedure: HeLa cells were maintained in Dulbecco's Modified Eagle's Medium (DMEM) containing 10% heat inactivated fetal calf serum, 100 U/mL penicillin and 100 μg/mL streptomycin. HeLa cells were used at 70% confluence for transfection. 20,000 cells in 87 μL cell culture medium were transiently transfected with 40 ng pSTAT1(2)-luciferase reporter (Panomics), 8 ng of LacZ reporter as internal control reporter and 52 ng of pBSK using 0.32 μL Jet-PEI (Polyplus) as transfection reagent per well in 96-well plate format. After overnight incubation at 37° C., 5% CO2, transfection medium was removed. 81 μL of DMEM+1.5% heat inactivated fetal calf serum was added. 9 μL compound at 10× concentration was added for 60 min and then 10 μL of human OSM (Peprotech) at 33 ng/mL final concentration.
The compound was tested in duplicate starting from 20 μM followed by a 1/3 serial dilution, 8 doses in total (20 μM-6.6 μM-2.2 μM-740 nM-250 nM-82 nM-27 nM-9 nM) in a final concentration of 0.2% DMSO.
After overnight incubation at 37° C., 5% CO2 cells were lysed by adding 100 μL lysis buffer/well (PBS, 0.9 mM CaCl2, 0.5 mM MgCl2, 10% Trehalose, 0.05% Tergitol NP9, 0.3% BSA).
40 μL of cell lysate was used to read β-galactosidase activity by adding 180 μL 11-Gal solution (30 μL ONPG 4 mg/mL+150 μL β-Galactosidase buffer (0.06 M Na2HPO4, 0.04 M NaH2PO4, 1 mM MgCl2)) for 20 min. The reaction was stopped by addition of 50 μL Na2CO3 1 M. Absorbance was read at 405 nm.
Luciferase activity was measured using 40 μL cell lysate plus 40 μL of Steadylite® as described by the manufacturer (Perkin Elmer), on the Envision (Perkin Elmer).
Omitting OSM was used as a positive control (100% inhibition). As negative control […] (0% inhibition) was used. The positive and negative controls were used to calculate z′ and ‘percent inhibition’ (PIN) values.
Percentage inhibition=((fluorescence determined in the presence of vehicle−fluorescence determined for sample with test compound present) divided by (fluorescence determined in the presence of vehicle−fluorescence determined for sample without trigger))*100.
PIN values were plotted for compounds tested in dose-response and EC50 values were derived.

[2] = target: T1, Recombinant human TYK2 catalytic domain (Homo sapiens, UniProt P29597); assay: TYK2 inhibition assay; format: biochemical
T1 construct: amino acids 871-1187; catalog number 08-147; GST; purchased Carna Biosciences 08-147
T1 sequence (P29597 871-1187): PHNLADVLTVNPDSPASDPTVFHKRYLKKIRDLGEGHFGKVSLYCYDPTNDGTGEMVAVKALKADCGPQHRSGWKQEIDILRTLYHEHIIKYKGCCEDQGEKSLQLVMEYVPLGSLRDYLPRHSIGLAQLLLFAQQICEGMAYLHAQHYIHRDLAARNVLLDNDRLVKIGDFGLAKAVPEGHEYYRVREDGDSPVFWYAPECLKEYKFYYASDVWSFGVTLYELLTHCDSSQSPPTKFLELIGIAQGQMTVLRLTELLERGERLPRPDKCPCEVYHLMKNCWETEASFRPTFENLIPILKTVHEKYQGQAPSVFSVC
Procedure: Recombinant human TYK2 catalytic domain (amino acids 871-1187; catalog number 08-147) was purchased from Carna biosciences. 4 ng of TYK2 was incubated with 12.5 μg polyGT substrate (Sigma catalog number P0275) in kinase reaction buffer (25 mM Hepes pH 7.2, 50 mM NaCl, 0.5 mM EDTA, 1 mM DTT, 5 mM MnCl2, 10 mM MgCl2, 0.1% Brij-35, 0.1 μM non-radioactive ATP, 0.125 μCi ^33P-gamma-ATP (Perkin Elmer, catalog number NEG602K001MC) final concentrations) with or without 5 μL containing test compound or vehicle (DMSO, 1% final concentration), in a total volume of 25 μL, in a polypropylene 96-well plate (Greiner, V-bottom). After 90 min at 30° C., reactions were stopped by adding 25 μL/well of 150 mM phosphoric acid. […] 40 μL/well of Microscint-20 was added, the top of the plates was sealed and readout was performed using the Topcount (Perkin Elmer). Kinase activity was calculated by subtracting counts per min (cpm) obtained in the presence of a positive control inhibitor (10 μM staurosporine) from cpm obtained in the presence of vehicle. The ability of a test compound to inhibit this activity was determined as:
Percentage inhibition−((cpm determined for sample with test compound present−cpm determined for sample with positive control inhibitor) divided by (cpm determined in the presence of vehicle−cpm determined for sample with positive control inhibitor))*100. […]

[3] = individual determinations, read-out: IC50

- IC50 ([1]; Homo sapiens, HeLa, average, read-out: IC50 (average)): > 7.43 µM
- IC50 ([1]; Homo sapiens, HeLa, individual determinations, read-out: IC50): > 6.67 µM
- IC50 ([1]; individual determinations): Non active
- IC50 [1, 3]: > 6.67 µM and 8.94 µM
- IC50 ([2]; average, read-out: IC50 (average)): > 3 µM
Structure (SMILES): Nc1nc2cccc(-c3ccc(CN4CCS(=O)(=O)CC4)cc3)n2n1 [Formula I, 5-[4-(1,1-Dioxothiomorpholin-4-ylmethyl)-phenyl]-[1,2,4]triazolo[1,5-a]pyridin-2-ylamine]
- IC50 [2, 3]: > 3.33 µM (3×) and 1.97 µM and 2.12 µM and 3.85 µM and 3.82 µM and 2.21 µM
